Tested on: CAF#6 (primary prostate cancer-associated fibroblasts of iCAF-like type)
Test: drug sensitivity score (DSS2, normalised partial AUC of dose-response, 72 h CellTiter-Glo viability) (DSS (dimensionless)); higher = more sensitive (stronger growth inhibition / cytotoxicity); extreme values may be limits of the assay
Procedure, shortened: (§1)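 Viability of low-passage primary prostate cancer-associated fibroblasts, PF179T, WPMY-1, LNCaP and 22Rv1 cells was read by CellTiter-Glo 2.0 luminescence 72 h after seeding onto compounds pre-dispensed in 384-well plates at five doses over a 10,000-fold range. Readings were scaled between vehicle and positive-control wells. Sensitivity is reported as a drug sensitivity score from BREEZE, namely a partial area under the fitted logistic curve divided by the log of its upper asymptote, where higher means more sensitive.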

Row | Structure (SMILES) | drug sensitivity score
1 | CS(=O)(=O)CCNCc1ccc(-c2ccc3ncnc(Nc4ccc(OCc5cccc(F)c5)c(Cl)c4)c3c2)o1 [Lapatinib] (tested concentration range 0.1-1000 nM) | 0
2 | O=C(Nc1cnn2ccc(N3CCC[C@@H]3c3cc(F)ccc3F)nc12)N1CC[C@H](O)C1 [Larotrectinib] (tested concentration range 0.1-1000 nM) | 0
3 | Oc1ccc2c(c1)CC[C@H](c1ccccc1)[C@@H]2c1ccc(OCCN2CCCC2)cc1 [Lasofoxifene] (tested concentration range 0.1-1000 nM) | 0
4 | Nc1cccc2c1CN(C1CCC(=O)NC1=O)C2=O (stereo unspecified) [Lenalidomide] (tested concentration range 10-100000 nM) | 0
5 | COc1cc2nccc(Oc3ccc(NC(=O)NC4CC4)c(Cl)c3)c2cc1C(N)=O [Lenvatinib] (tested concentration range 0.2-2500 nM) | 3.8
6 | N#Cc1ccc(C(c2ccc(C#N)cc2)n2cncn2)cc1 [Letrozole] (tested concentration range 1-10000 nM) | 0
7 | O=C1CCc2c(Oc3ccc4c(c3)[C@@H]3[C@H](O4)[C@H]3c3nc4cc(C(F)(F)F)ccc4[nH]3)ccnc2N1 [Lifirafenib] (tested concentration range 1-10000 nM) | 0.5
8 | C[C@]1(O)C[C@@H](c2nc(-c3ccc4ccc(-c5ccccc5)nc4c3)c3c(N)nccn32)C1 [Linsitinib] (tested concentration range 1-10000 nM) | 0.2
9 | Nc1nc(OCc2cc(Br)cs2)c2[nH]cnc2n1 [Lomeguatrib] (tested concentration range 1-10000 nM) | 0
10 | NC(=O)N1CCC(CC(=O)N2CCC([C@H]3c4ncc(Br)cc4CCc4cc(Cl)cc(Br)c43)CC2)CC1 [Lonafarnib] (tested concentration range 5-50000 nM) | 8.5
11 | C[C@H]1Oc2cc(cnc2N)-c2c(nn(C)c2C#N)CN(C)C(=O)c2ccc(F)cc21 [Lorlatinib] (tested concentration range 0.1-1000 nM) | 1.4
12 | Cc1c(F)cc(C(=O)NC2CC2)cc1-c1ccc(C(=O)NCC(C)(C)C)cn1 [Losmapimod] (tested concentration range 1-10000 nM) | 0
13 | CC[C@H](C)C(=O)O[C@H]1C[C@@H](C)C=C2C=C[C@H](C)[C@H](CC[C@@H]3C[C@@H](O)CC(=O)O3)[C@H]21 [Lovastatin] (tested concentration range 1-10000 nM) | 2.6
14 | CNC(=O)c1cccc2cc(Oc3ccnc4cc(OCC5(N)CC5)c(OC)cc34)ccc12 [Lucitanib] (tested concentration range 1-10000 nM) | 6.6
15 | O=C(O)CC[C@H]1CC[C@@](c2cc(F)ccc2F)(S(=O)(=O)c2ccc(Cl)cc2)CC1 [MK-0752] (tested concentration range 0.1-1000 nM) | 0
16 | NC1(c2ccc(-c3nc4ccn5c(=O)[nH]nc5c4cc3-c3ccccc3)cc2)CCC1 [MK-2206] (tested concentration range 0.1-1000 nM) | 3.2
17 | O=C(c1cccc(Cl)c1F)N1CCN(Cc2cccc(Nc3nccs3)n2)CC1 [MK-8745] (tested concentration range 1-10000 nM) | 3.4
18 | O=C(Nc1cccc(NC(=O)c2cccc(O)c2O)c1)c1cccc(O)c1O [MST-312] (tested concentration range 1-10000 nM) | 10.5
19 | CNC(=O)[C@@H](NC(=O)[C@H](CC(C)C)[C@H](O)C(=O)NO)C(C)(C)C [Marimastat] (tested concentration range 1-10000 nM) | 0
20 | Cc1ccc(NC(=O)c2ccc(CN3CCN(C)CC3)cc2)cc1Nc1nc(-c2cccnc2)cs1 [Masitinib] (tested concentration range 1-10000 nM) | 1.6
21 | CCN(CC)CCCC(C)Nc1c2ccc(Cl)cc2nc2ccc(OC)cc12 (stereo unspecified) [Mepacrine] (tested concentration range 5-50000 nM) | 9.9
22 | S=c1[nH]cnc2nc[nH]c12 [Mercaptopurine] (tested concentration range 1-10000 nM) | 1.4
23 | Cc1ccc(C(=O)Nc2ccc(Oc3cc4cnn(C)c4cc3-c3cn[nH]c3)c(F)c2)c(=O)n1-c1ccc(F)cc1 [Merestinib] (tested concentration range 0.1-1000 nM) | 3.5

Tested on: PF179T
Test: as above
Procedure, shortened: as §1

Row | Structure (SMILES) | drug sensitivity score
24 | Nc1cc(COc2c(Cl)cc(C[C@H](N)C(=O)O)cc2Cl)c2oc(-c3ccccc3)nc2c1 [JPH203] (tested concentration range 0.5-5000 nM) | 0
25 | CC(C)NC(=O)COc1cccc(-c2nc(Nc3ccc4[nH]ncc4c3)c3ccccc3n2)c1 [KD025] (tested concentration range 0.5-5000 nM) | 0
26 | CC(C)[C@@H](CS(=O)(=O)C(C)C)N1C(=O)[C@@](C)(CC(=O)O)C[C@H](c2cccc(Cl)c2)[C@H]1c1ccc(Cl)cc1 [KRT-232] (tested concentration range 1-10000 nM) | 14.2
27 | CS(=O)(=O)CCNCc1ccc(-c2ccc3ncnc(Nc4ccc(OCc5cccc(F)c5)c(Cl)c4)c3c2)o1 [Lapatinib] (tested concentration range 0.1-1000 nM) | 0
28 | O=C(Nc1cnn2ccc(N3CCC[C@@H]3c3cc(F)ccc3F)nc12)N1CC[C@H](O)C1 [Larotrectinib] (tested concentration range 0.1-1000 nM) | 0
29 | Oc1ccc2c(c1)CC[C@H](c1ccccc1)[C@@H]2c1ccc(OCCN2CCCC2)cc1 [Lasofoxifene] (tested concentration range 0.1-1000 nM) | 0
30 | Nc1cccc2c1CN(C1CCC(=O)NC1=O)C2=O (stereo unspecified) [Lenalidomide] (tested concentration range 10-100000 nM) | 0
31 | COc1cc2nccc(Oc3ccc(NC(=O)NC4CC4)c(Cl)c3)c2cc1C(N)=O [Lenvatinib] (tested concentration range 0.2-2500 nM) | 0.9
32 | N#Cc1ccc(C(c2ccc(C#N)cc2)n2cncn2)cc1 [Letrozole] (tested concentration range 1-10000 nM) | 0
33 | O=C1CCc2c(Oc3ccc4c(c3)[C@@H]3[C@H](O4)[C@H]3c3nc4cc(C(F)(F)F)ccc4[nH]3)ccnc2N1 [Lifirafenib] (tested concentration range 1-10000 nM) | 1.3
34 | C[C@]1(O)C[C@@H](c2nc(-c3ccc4ccc(-c5ccccc5)nc4c3)c3c(N)nccn32)C1 [Linsitinib] (tested concentration range 1-10000 nM) | 0
35 | Nc1nc(OCc2cc(Br)cs2)c2[nH]cnc2n1 [Lomeguatrib] (tested concentration range 1-10000 nM) | 0
36 | NC(=O)N1CCC(CC(=O)N2CCC([C@H]3c4ncc(Br)cc4CCc4cc(Cl)cc(Br)c43)CC2)CC1 [Lonafarnib] (tested concentration range 5-50000 nM) | 3.1

Reference: the supplement of paper PMC12592484
